Patent publication US10548915B2, “Combination therapy for EV71 infection” (SUN JET BIOTECHNOLOGY INC., priority 2015, dated 2020)

Test system: EV71 replication in RD cells
Assay: anti-VP1 western blot of EV71-infected RD cells (VP1/vimentin ratio normalized to non-treated infected cells)
Type: cell-based, enterovirus type 71 (EV71 strain 4643/TW/1998)
Description: Antibodies—Used antibodies included rabbit anti-VP1 (GTX70007, 1:2000, GeneTex), mouse anti-vimentin (sc-6260, 1:1000, Santa Cruz).
Cell lines, viruses and viral infection—RD (Human rhabdomyosarcoma, ATCC® CCL-136™) cells were grown in Dulbecco's modified Eagle's medium (Sigma, USA) containing 10% fetal bovine serum (Invitrogen, USA), at 5% CO2 and 37° C. EV71 strain 4643/TW/1998 (GeneBank accession number 1N544418.1) was kindly provided by Dr. Lih-Hwa Hwang at National Yang-Ming University, Taiwan. Viruses were added to RD cells which were cultured in DMEM containing 2% FBS. The newly generated viruses were titrated by cytopathology assay. For viral infection, cells were seeded at 80% confluency in 6-well dishes and grown overnight. Before challenge with viruses of 5 multiplicity of infection (MOI), old medium was replaced with serum-free medium. After 1 h adsorption of viruses, infected cells were cultured in DMEM with 10% FBS.
Western blotting—Protein extracted from RD cells were resolved with electrophoresis. Protein were blotted onto a nitrocellulose membrane eletrophoretically and incubated with indicated antibodies. The immunoreactive bands were visualized with LAS-4000 (FUJIFLIM).

[1] = single compound at 0.005 μM (so in the source), RD cells, EV71 MOI 5
[2] = single compound at 5 μM, RD cells, EV71 MOI 5

SMILES | VP1 expression relative to non-treated infected cells [1] | anti-EV71 effect (VP1 expression), in words (single compound at 0.05 μM) | anti-EV71 effect (VP1 expression), in words (single compound at 5 μM) | VP1 expression relative to non-treated infected cells [2] | other results
CC(=O)OC[C@H]1O[C@@H]([S-])[C@H](OC(C)=O)[C@@H](OC(C)=O)[C@@H]1OC(C)=O.CCP(CC)CC.[Au+] [auranofin] | 0.9 | minimal effects | strong anti-EV71 | 0.05 | 
CC[C@H]1CN2CCc3cc(OC)c(OC)cc3[C@@H]2C[C@@H]1C[C@H]1NCCc2cc(OC)c(OC)cc21 [emetine] |  | VP1 expression returning |  |  | anti-EV71 effect (VP1 expression), in words (single compound at 0.5-5 μM): strong blockage of EV71 expression
CNCC[C@H](Oc1ccc(C(F)(F)F)cc1)c1ccccc1 [fluoxetine, S-(+)-fluoxetine] |  |  |  |  | VP1 expression relative to non-treated infected cells (single compound, all tested concentrations (5, 0.5, 0.05 μM)): 0.9-1.0
O=C(Nc1ccc([N+](=O)[O-])cc1Cl)c1cc(Cl)ccc1O [niclosamide] | 0.9 | minimal effects | strong anti-EV71 | 0.2 | 
C[C@@H]1O[C@@H](O[C@H]2C[C@@H](O)[C@]3(CO)[C@H]4[C@H](O)C[C@]5(C)[C@@H](C6=CC(=O)OC6)CC[C@]5(O)[C@@H]4CC[C@]3(O)C2)[C@H](O)[C@H](O)[C@H]1O [ouabain] |  |  |  |  | anti-EV71 effect (VP1 expression), in words (single compound at 0.005 μM): VP1 expression returning; anti-EV71 effect (VP1 expression), in words (single compound at 0.05-5 μM): strong blockage of EV71 expression
